Source: patent US20230002408A1, “HETEROARYLDIHYDROPYRIMIDINE DERIVATIVES AND METHODS OF TREATING HEPATITIS B INFECTIONS” (JANSSEN PHARMACEUTICA NV, priority 2019, published 2023)
Like-named read-outs stand apart in the source and are kept apart here.

Columns and labels:
[1] = Cytotoxicity determination in HepG2.2.15 cells (CCK-8 cell viability); assay type: cell-based; conditions: human, 6 days treatment, CCK-8, highest concentration 100 uM
Protocol: (§1) HepG2.2.15 (the HepG2.2.15 cell line can be produced by transfection of the HepG2 cell line as described in Sells, Chen, and Acs 1987 (Proc. Natl. Acad. Sci. USA 84: 1005-1009), and the HepG2 cell line is available from ATCC® under number HB-8065™).
(§2) HepG2.2.15 cells were plated into 96-well plate in 2% FBS culture medium at the density of 40,000 cells/well and 5,000 cells/well for HBV inhibitory activity and cytotoxicity determination, respectively. After incubation at 37° C., 5% CO2 overnight, cells were treated with medium containing compounds for 6 days with medium and compounds refreshed after 3 days of treatment. Each compound was tested in a 1:3 serial dilutions at 8 different concentrations in triplicate. The highest concentration of the compounds was 10 uM or 1 uM for anti-HBV activity assay and 100 uM for cytotoxicity determination. Cell viability was determined by CCK-8 assay. After 6 days of compounds treatment, 20 μl CCK-8 reagents were added to each well of cytotoxicity assay plates. Cell plates were incubated at 37° C., 5% CO2 for 2.5 h. The absorbance at 450 nm wavelength and the absorbance at 630 nm wavelength as reference was measured.
(§3) EC50 and CC50 values are calculated by the GRAPHPAD PRISM software.

HBV = experiment: Anti-viral assay in HepG2.2.15 cells: HBV DNA in culture medium by qPCR; assay type: cell-based; conditions: Hepatitis B virus, HepG2.2.15, 144 h
Protocol: as §1, §2
The change of HBV DNA level induced by the compounds was assessed by quantitative real-time polymerase chain reaction (qPCR). Briefly, the HBV DNA in the culture medium was extracted using QlAamp 96 DNA Blood Kit according to the manual and then quantified by real-time PCR assay using the primers and probe in the table 1 below.
as §3

[2] = HepG2.2.15 cells, 6 days treatment, HBV DNA in culture medium by real-time PCR, read-out: EC50

SMILES | CC50 at 6 days [1] [nM] | EC50 (HBV) [nM] | EC50 (HBV; [2]) [nM]
CCOC(=O)C1=C(CN2CCO[C@@H]3CN(C(C)=O)C[C@@H]32)NC(c2nccs2)=N[C@H]1c1cccc(F)c1C (racemic) [Compound I-4E, (S)-ethyl 6-(((cis)-6-acetylhexahydropyrrolo[3,4-b][1,4]oxazin-4(4aH)-yl)methyl)-4-(3-fluoro-2-methylphenyl)-2-(thiazol-2-yl)-1,4-dihydropyrimidine-5-carboxylate] | 48300 | 7.1 | –
CCOC(=O)C1=C(CN2CCO[C@@H]3CN(S(C)(=O)=O)C[C@@H]32)NC(c2nccs2)=N[C@H]1c1cccc(F)c1C (racemic) [Compound I-7F, (S)-(cis)-Ethyl 4-(3-fluoro-2-methylphenyl)-6-((6-(methylsulfonyl)hexahydropyrrolo[3,4-b][1,4]oxazin-4(4aH)-yl)methyl)-2-(thiazol-2-yl)-1,4-dihydropyrimidine-5-carboxylate] | 26400 | – | 8
CCOC(=O)C1=C(CN2CCO[C@@H]3CN(c4ncc(C(=O)O)s4)C[C@@H]32)NC(c2nccs2)=N[C@H]1c1cccc(F)c1C (racemic) [Compound I-8F, 2-((cis)-4-(((S)-5-(Ethoxycarbonyl)-6-(3-fluoro-2-methylphenyl)-2-(thiazol-2-yl)-3,6-dihydropyrimidin-4-yl)methyl)hexahydropyrrolo[3,4-b][1,4]oxazin-6(2H)-yl)thiazole-5-carboxylic acid] | 37600 | 45 | –
CCOC(=O)C1=C(CN2CCO[C@H]3CN(C(=O)CC(C)(C)C(=O)O)C[C@H]32)NC(c2nccs2)=N[C@H]1c1cccc(F)c1C (relative stereo) [Compound I-2A, 4-((4aR*,7aS*)-4-4(S)-5-(ethoxycarbonyl)-6-(3-fluoro-2-methylphenyl)-2-(thiazol-2-yl)-3,6-dihydropyrimidin-4-yl)methyl)hexahydropyrrolo[3,4-b][1,4]oxazin-6(2H)-yl)-2,2-dimethyl-4-oxobutanoic acid] | 74000 | 33 | –
CCOC(=O)C1=C(CN2CCO[C@H]3CN(CC(C)(C)C(=O)O)C[C@H]32)NC(c2nccs2)=N[C@H]1c1cccc(F)c1C (relative stereo) [Compound I-6A, 3-((4aR*,7aS*)-4-4(S)-5-(Ethoxycarbonyl)-6-(3-fluoro-2-methylphenyl)-2-(thiazol-2-yl)-3,6-dihydropyrimidin-4-yl)methyphexahydropyrrolo[3,4-b][1,4]oxazin-6(2H)-yl)-2,2-dimethylpropanoic acid] | 82400 | – | 18
CCOC(=O)C1=C(CN2CCO[C@@H]3CN(S(=O)(=O)C4CC(C)(C(=O)O)C4)C[C@@H]32)NC(c2nccs2)=N[C@H]1c1cccc(F)c1C (relative stereo) [Compound I-9F, (4aS*,7aR*)—(S)-3-((4-((5-(Ethoxycarbonyl)-6-(3-fluoro-2-methylphenyl)-2-(thiazol-2-yl)-3,6-dihydropyrimidin-4-yl)methyphexahydropyrrolo[3,4-b][1,4]oxazin-6(2H)-yl)sulfonyl)-1-methylcyclobutanecarboxylic acid] | 82600 | – | 110
CCOC(=O)C1=C(CN2CCO[C@H]3CN(C(=O)C(C)(C)C(=O)O)C[C@H]32)NC(c2nccs2)=N[C@H]1c1cccc(F)c1C (relative stereo) [Compound I-12A, 3-((4aR*,7aS*)-4-4(S)-5-(ethoxycarbonyl)-6-(3-fluoro-2-methylphenyl)-2-(thiazol-2-yl)-3,6-dihydropyrimidin-4-yl)methyl)hexahydropyrrolo[3,4-b][1,4]oxazin-6(2H)-yl)-2,2-dimethyl-3-oxopropanoic acid] | > 100000 | 310 | –
CCOC(=O)C1=C(CN2CCO[C@H]3CN(CC(C)(C)C(=O)O)C(=O)[C@H]32)NC(c2nccs2)=N[C@H]1c1cccc(F)c1C (single isomer, unassigned) [Compound I-3B, (S)-3-((4aS*,7aS*)-4-((5-(Ethoxycarbonyl)-6-(3-fluoro-2-methylphenyl)-2-(thiazol-2-yl)-3,6-dihydropyrimidin-4-yl)methyl)-5-oxohexahydropyrrolo[3,4-b][1,4]oxazin-6(2H)-yl)-2,2-dimethylpropanoic acid] | 60200 | – | 5.2
CCOC(=O)C1=C(CN2CCO[C@H]3CCN(CC(C)(C)C(=O)O)C[C@H]32)NC(c2nccs2)=N[C@H]1c1cccc(F)c1C (single isomer, unassigned) [Compound I-10A, 3-((4aR*,8aS*)-4-(((S)-5-(Ethoxycarbonyl)-6-(3-fluoro-2-methylphenyl)-2-(thiazol-2-yl)-3,6-dihydropyrimidin-4-yl)methyl)hexahydro-2H-pyrido[4,3-b][1,4]oxazin-6(7H)-yl)-2,2-dimethylpropanoic acid] | 94500 | – | 28
CCOC(=O)C1=C(CN2CCO[C@@H]3CN(CC(C)(C)C(=O)O)CC[C@@H]32)NC(c2nccs2)=N[C@H]1c1cccc(F)c1C (single isomer, unassigned) [Compound I-11A, (S)-3-((4aR*,8aS*)-1-((5-(Ethoxycarbonyl)-6-(3-fluoro-2-methylphenyl)-2-(thiazol-2-yl)-3,6-dihydropyrimidin-4-yl)methyl)hexahydro-1H-pyrido[3,4-b][1,4]oxazin-6(7H)-yl)-2,2-dimethylpropanoic acid] | 97900 | – | 48
CCOC(=O)C1=C(CN2CCO[C@H]3CN(CC(C)(C)C(=O)O)C[C@H]32)NC(c2nccs2)=N[C@H]1c1cccc(F)c1Cl (single isomer, unassigned) [Compound I-13A, 3-((4aR*,7aS*)-4-0(R*)-6-(2-Chloro-3-fluorophenyl)-5-(ethoxycarbonyl)-2-(thiazol-2-yl)-3,6-dihydropyrimidin-4-yl)methyl)hexahydropyrrolo[3,4-b][1,4]oxazin-6(2H)-yl)-2,2-dimethylpropanoic acid] | 67100 | – | 13
COC(=O)C1=C(CN2CCO[C@H]3CN(CC(C)(C)C(=O)O)C[C@H]32)NC(c2nccs2)=N[C@H]1c1cccc(F)c1C (single isomer, unassigned) [Compound I-14A, 3-((4aR*,7aS*)-4-0(S*)-6-(3-fluoro-2-methylphenyl)-5-(methoxycarbonyl)-2-(thiazol-2-yl)-3,6-dihydropyrimidin-4-yl)methyl)hexahydropyrrolo[3,4-b][1,4]oxazin-6(2H)-yl)-2,2-dimethylpropanoic acid] | > 100000 | – | 33
COC(=O)C1=C(CN2CCO[C@H]3CN(CC(C)(C)C(=O)O)C[C@H]32)NC(c2nccs2)=N[C@H]1c1ccc(F)cc1Cl (single isomer, unassigned) [Compound I-15A, 3-((4aR*,7aS*)-4-((R*)-6-(2-Chloro-4-fluorophenyl)-5-(methoxycarbonyl)-2-(thiazol-2-yl)-3,6-dihydropyrimidin-4-yl)methyl)hexahydropyrrolo[3,4-b][1,4]oxazin-6(2H)-yl)-2,2-dimethylpropanoic acid] | > 100000 | – | 19
COC(=O)C1=C(CN2CCO[C@H]3CN(CC(C)(C)C(=O)O)C[C@H]32)NC(c2nccs2)=N[C@H]1c1cccc(F)c1Cl (single isomer, unassigned) [Compound I-16A, 3-((4aR*,7aS*)-4-0(R*)-6-(2-Chloro-3-fluorophenyl)-5-(methoxycarbonyl)-2-(thiazol-2-yl)-3,6-dihydropyrimidin-4-yl)methyl)hexahydropyrrolo[3,4-b][1,4]oxazin-6(2H)-yl)-2,2-dimethylpropanoic acid] | 92800 | – | 15
COC(=O)C1=C(CN2CCO[C@H]3CN(CC(C)(C)C(=O)O)C(=O)[C@H]32)NC(c2nccs2)=N[C@H]1c1ccc(F)c(F)c1C (single isomer, unassigned) [Compound I-17B, 3-((4aS*,7aS*)-4-(((S*)-6-(3,4-difluoro-2-methylphenyl)-5-(methoxycarbonyl)-2-(thiazol-2-yl)-3,6-dihydropyrimidin-4-yl)methyl)-5-oxohexahydropyrrolo[3,4-b][1,4]oxazin-6(2H)-yl)-2,2-dimethylpropanoic acid] | 41700 | – | 2.6
CCOC(=O)C1=C(CN2CCO[C@H]3CN(CC(C)(C)C(=O)O)C(=O)[C@H]32)NC(c2nccs2)=N[C@H]1c1cccc(F)c1Cl (single isomer, unassigned) [Compound I-18A, 3-((4aS*,7aS*)-4-4(R*)-6-(2-chloro-3-fluorophenyl)-5-(ethoxycarbonyl)-2-(thiazol-2-yl)-3,6-dihydropyrimidin-4-yl)methyl)-5-oxohexahydropyrrolo[3,4-b][1,4]oxazin-6(2H)-yl)-2,2-dimethylpropanoic acid] | 62400 | – | 7
